Test results published in patent publication US10874743B2, “IRAK degraders and uses thereof” (Kymera Therapeutics, Inc., priority 2017, dated 2020).
Values joined by “and” are separate entries in the source; they are usually repeats but may differ in a detail not shown here. Equal values may be shown once. Read-outs that look alike come from different tables or passages of the source.

Assay: Pharmacokinetics in Sprague Dawley rats (plasma and brain concentrations, PK parameters)
Assay type: in vivo
Details: for Concentration Rat 4 / Concentration Rat 5 / Concentration Rat 6: po 10 mg/kg
Experimental: Pharmacokinetics for I-127, I-172 and I-210 were determined in Sprague Dawley rats or CD-1 mice by dosing intravenous (IV), subcutaneous (SC) or per oral (PO) using facility SOPs and sampling plasma at required time points. Species, formulation, route of administration and time points samples are listed below for each compound.
Compounds were extracted from plasma, injected on reverse phase HPLC, eluted with a gradient from 5% to 95% acetonitrile in water and quantified by mass spectrometry with internal standard. Data are expressed in ng compound per mL of plasma.

[1] = Rat (Sprague Dawley) po 10 mg/kg, Mean
[2] = Rat (Sprague Dawley) po 10 mg/kg, individual Rat 4-6, 10 mg/kg
[3] = Sprague Dawley rat, iv 3 mg/kg, Rat 1
[4] = Sprague Dawley rat, iv 3 mg/kg, Rat 2
[5] = Sprague Dawley rat, iv 3 mg/kg, Rat 3
[6] = Sprague Dawley rat, iv 3 mg/kg, mean of 3 rats
[7] = Sprague Dawley rat, plasma, 0 h
[8] = Sprague Dawley rat, plasma, 24 h

Structure (SMILES): O=C1CCC(N2C(=O)c3cccc(NCCOCCOCCNCc4ccc(-n5cc(NC(=O)c6coc(-c7ccnc(NCC8CC8)c7)n6)c(C(F)F)n5)cc4)c3C2=O)C(=O)N1 (stereo not drawn) [I-210, 2-[2-(Cyclopropylmethylamino)-4-pyridyl]-N-[3-(difluoromethyl)-1-[4-[[2-[2-[2-[[2-(2,6-dioxo-3-piperidyl)-1,3-dioxoisoindolin-4-yl]amino]ethoxy]ethoxy]ethylamino]methyl]phenyl]pyrazol-4-yl]oxazole-4-carboxamide]
- brain Detected Conc. (Rat (Sprague Dawley) iv 3 mg/kg (IVB), brain homogenate 1:2 in PBS, 0.083 h, Group 1, Group 2, 3 mg/kg): 11.8 ng/mL
- brain Detected Conc. (Rat (Sprague Dawley) iv 3 mg/kg (IVB), brain homogenate 1:2 in PBS, 0.25 h, Group 1, Group 2, 3 mg/kg): 12.9 ng/mL
- brain Detected Conc. (Rat (Sprague Dawley) iv 3 mg/kg (IVB), brain homogenate 1:2 in PBS, 1 h, Group 1, Group 2, 3 mg/kg): 17.5 ng/mL
- brain Detected Conc. (Rat (Sprague Dawley) iv 3 mg/kg (IVB), brain homogenate 1:2 in PBS, 4 h, Group 1, Group 2, 3 mg/kg): 12.4 ng/mL
- brain Actual Conc. (Rat (Sprague Dawley) iv 3 mg/kg (IVB), brain, 0.083 h, Group 1, Group 2, detected value multiplied by 3, 3 mg/kg): 35.4 ng/g
- brain Actual Conc. (Rat (Sprague Dawley) iv 3 mg/kg (IVB), brain, 0.25 h, Group 1, Group 2, detected value multiplied by 3, 3 mg/kg): 38.7 ng/g
- brain Actual Conc. (Rat (Sprague Dawley) iv 3 mg/kg (IVB), brain, 1 h, Group 1, Group 2, detected value multiplied by 3, 3 mg/kg): 52.5 ng/g
- brain Actual Conc. (Rat (Sprague Dawley) iv 3 mg/kg (IVB), brain, 4 h, Group 1, Group 2, detected value multiplied by 3, 3 mg/kg): 37.2 ng/g
- AUC_%Extrap_obs [1]: 42.3%
- AUClast/D [1]: 1.52 kg·ng·h/mL/mg
- F [1]: 0.385%
- AUC_%Extrap_obs [2]: 33.5% and 48.7% and 44.8%
- AUClast [2]: 17.7 ng·h/mL and 21.1 ng·h/mL and 6.66 ng·h/mL
- Cmax [2]: 3.50 ng/mL and 4.02 ng/mL and 1.20 ng/mL
- F [2]: 0.450% and 0.536% and 0.169%
- MRTInf_obs [2]: 10.2 h and 9.35 h
- T1/2 [2]: 5.65 h and 5.28 h
- AUC_%Extrap_obs Rat 1 [3]: 0.140%
- AUClast/D Rat 1 [3]: 414 kg·ng·h/mL/mg
- Cl_obs Rat 1 [3]: 40.2 mL/min/kg
- Vss_obs Rat 1 [3]: 7.85 L/kg
- AUC_%Extrap_obs Rat 2 [4]: 0.183%
- AUClast/D Rat 2 [4]: 403 kg·ng·h/mL/mg
- Cl_obs Rat 2 [4]: 41.2 mL/min/kg
- Vss_obs Rat 2 [4]: 7.79 L/kg
- AUC_%Extrap_obs Rat 3 [5]: 0.185%
- AUClast/D Rat 3 [5]: 364 kg·ng·h/mL/mg
- Cl_obs Rat 3 [5]: 45.7 mL/min/kg
- Vss_obs Rat 3 [5]: 8.00 L/kg
- AUC_%Extrap_obs Mean [6]: 0.169%
- AUClast/D Mean [6]: 394 kg·ng·h/mL/mg
- Cl obs Mean [6]: 42 mL/min/kg
- Vss_obs Mean [6]: 7.88 L/kg
- Concentration Rat 1 (Sprague Dawley rat, iv 3 mg/kg, plasma, 0 h, Rat 1): BLOQ
- Concentration Rat 2 (Sprague Dawley rat, iv 3 mg/kg, plasma, 0 h, Rat 2): BLOQ
- Concentration Rat 3 (Sprague Dawley rat, iv 3 mg/kg, plasma, 0 h, Rat 3): BLOQ
- Concentration Rat 4 [7]: BLOQ
- Concentration Rat 5 [7]: BLOQ
- Concentration Rat 6 [7]: BLOQ
- Concentration Rat 4 [8]: BLOQ
- Concentration Rat 5 [8]: BLOQ
- Concentration Rat 6 [8]: BLOQ
- concentration at 0.083 h (Sprague Dawley, rat, brain homogenate, iv, 3 mg/kg, Rat (Sprague Dawley) iv 3 mg/kg (IVB), brain homogenate 1:2 in PBS, 0.083 h, Group 1, Group 2, read-out: brain Detected Conc.): 17.2 ng/mL
- concentration at 0.25 h (Sprague Dawley, rat, brain homogenate, iv, 3 mg/kg, Rat (Sprague Dawley) iv 3 mg/kg (IVB), brain homogenate 1:2 in PBS, 0.25 h, Group 1, Group 2, read-out: brain Detected Conc.): 13.2 ng/mL
- concentration at 1 h (Sprague Dawley, rat, brain homogenate, iv, 3 mg/kg, Rat (Sprague Dawley) iv 3 mg/kg (IVB), brain homogenate 1:2 in PBS, 1 h, Group 1, Group 2, read-out: brain Detected Conc.): 13.3 ng/mL
- concentration at 4 h (Sprague Dawley, rat, brain homogenate, iv, 3 mg/kg, Rat (Sprague Dawley) iv 3 mg/kg (IVB), brain homogenate 1:2 in PBS, 4 h, Group 1, Group 2, read-out: brain Detected Conc.): 14.2 ng/mL
- concentration at 0.083 h (Sprague Dawley, rat, brain, iv, 3 mg/kg, Rat (Sprague Dawley) iv 3 mg/kg (IVB), brain, 0.083 h, Group 1, Group 2, detected value multiplied by 3, read-out: brain Actual Conc.): 51.6 ng/g
- concentration at 0.083 h (Sprague Dawley, rat, brain, iv, 3 mg/kg, Rat (Sprague Dawley) iv 3 mg/kg (IVB), brain, 0.083 h, Mean, read-out: brain Actual Conc.): 43.5 ng/g
- concentration at 0.25 h (Sprague Dawley, rat, brain, iv, 3 mg/kg, Rat (Sprague Dawley) iv 3 mg/kg (IVB), brain, 0.25 h, Group 1, Group 2, detected value multiplied by 3, read-out: brain Actual Conc.): 39.6 ng/g
- concentration at 0.25 h (Sprague Dawley, rat, brain, iv, 3 mg/kg, Rat (Sprague Dawley) iv 3 mg/kg (IVB), brain, 0.25 h, Mean, read-out: brain Actual Conc.): 39.2 ng/g
- concentration at 1 h (Sprague Dawley, rat, brain, iv, 3 mg/kg, Rat (Sprague Dawley) iv 3 mg/kg (IVB), brain, 1 h, Group 1, Group 2, detected value multiplied by 3, read-out: brain Actual Conc.): 39.9 ng/g
- concentration at 1 h (Sprague Dawley, rat, brain, iv, 3 mg/kg, Rat (Sprague Dawley) iv 3 mg/kg (IVB), brain, 1 h, Mean, read-out: brain Actual Conc.): 46.2 ng/g
- AUC(0-inf) (Sprague Dawley, rat, plasma, iv, 3 mg/kg, Sprague Dawley rat, iv 3 mg/kg, Rat 1, read-out: AUCInf Rat 1): 1240 ng·h/mL
- AUC(0-t) (Sprague Dawley, rat, plasma, iv, 3 mg/kg, Sprague Dawley rat, iv 3 mg/kg, Rat 1, read-out: AUClast Rat 1): 1240 ng·h/mL
- C0 (Sprague Dawley, rat, plasma, iv, 3 mg/kg, Sprague Dawley rat, iv 3 mg/kg, Rat 1, read-out: C0 Rat 1): 873 ng/mL
- half-life (Sprague Dawley, rat, plasma, iv, 3 mg/kg, Sprague Dawley rat, iv 3 mg/kg, Rat 1, read-out: T1/2 Rat 1 (converted)): 2.66 h
- AUC(0-inf) (Sprague Dawley, rat, plasma, iv, 3 mg/kg, Sprague Dawley rat, iv 3 mg/kg, Rat 2, read-out: AUCInf Rat 2): 1210 ng·h/mL
- AUC(0-t) (Sprague Dawley, rat, plasma, iv, 3 mg/kg, Sprague Dawley rat, iv 3 mg/kg, Rat 2, read-out: AUClast Rat 2): 1210 ng·h/mL
- C0 (Sprague Dawley, rat, plasma, iv, 3 mg/kg, Sprague Dawley rat, iv 3 mg/kg, Rat 2, read-out: C0 Rat 2): 814 ng/mL
- half-life (Sprague Dawley, rat, plasma, iv, 3 mg/kg, Sprague Dawley rat, iv 3 mg/kg, Rat 2, read-out: T1/2 Rat 2 (converted)): 2.83 h
- AUC(0-inf) (Sprague Dawley, rat, plasma, iv, 3 mg/kg, Sprague Dawley rat, iv 3 mg/kg, Rat 3, read-out: AUCInf Rat 3): 1090 ng·h/mL
- AUC(0-t) (Sprague Dawley, rat, plasma, iv, 3 mg/kg, Sprague Dawley rat, iv 3 mg/kg, Rat 3, read-out: AUClast Rat 3): 1090 ng·h/mL
- C0 (Sprague Dawley, rat, plasma, iv, 3 mg/kg, Sprague Dawley rat, iv 3 mg/kg, Rat 3, read-out: C0 Rat 3): 855 ng/mL
- half-life (Sprague Dawley, rat, plasma, iv, 3 mg/kg, Sprague Dawley rat, iv 3 mg/kg, Rat 3, read-out: T1/2 Rat 3 (converted)): 2.88 h
- AUC(0-inf) (Sprague Dawley, rat, plasma, iv, 3 mg/kg, Sprague Dawley rat, iv 3 mg/kg, mean of 3 rats, read-out: AUCInf Mean): 1180 ng·h/mL
- AUC(0-t) (Sprague Dawley, rat, plasma, iv, 3 mg/kg, Sprague Dawley rat, iv 3 mg/kg, mean of 3 rats, read-out: AUClast Mean): 1180 ng·h/mL
- C0 (Sprague Dawley, rat, plasma, iv, 3 mg/kg, Sprague Dawley rat, iv 3 mg/kg, mean of 3 rats, read-out: C0 Mean): 848 ng/mL
- half-life (Sprague Dawley, rat, plasma, iv, 3 mg/kg, Sprague Dawley rat, iv 3 mg/kg, mean of 3 rats, read-out: T1/2 Mean (converted)): 2.79 h
- AUC(0-inf) (Sprague Dawley, rat, plasma, po, 10 mg/kg, Rat (Sprague Dawley) po 10 mg/kg, Mean, read-out: AUCInf): 26.6 ng·h/mL
